From patent US10105357B2, “Indication of antibiotic drugs for preparation of cancer inhibition pharmaceutical composition” (LAUNX BIOMEDICAL CO., LTD., priority 2014, dated 2018)
Where a name gives a salt, the structure may show the parent alone. Read-outs that look alike come from different tables or passages of the source.

Columns and labels:
Format in all cases: cell-based, human
[1] = test system: HI650 (Lung Adenocarcinoma); assay: Cell viability analysis, lung cancer HI650; details: for viability at 10 µM: Homo sapiens
[2] = test system: A549 (Lung Adenocarcinoma); assay: Cell viability analysis, lung cancer A549; details: for viability at 10 µM: Homo sapiens
[3] = test system: AGS (Gastric Adenocarcinoma); assay: Cell viability analysis, gastric cancer AGS; details: for viability at 10 µM: Homo sapiens
[4] = test system: MKN-45 (Gastric Adenocarcinoma); assay: Cell viability analysis, gastric cancer MKN-45; details: for viability at 10 µM: Homo sapiens
[5] = test system: HepG2 (Hepatocellular Carcinoma); assay: Cell viability analysis, hepatic cancer HepG2; details: for viability at 10 µM: Homo sapiens
[6] = test system: LoVo (Colorectal Adenocarcinoma); assay: Cell viability analysis, colon cancer LoVo; details: for viability at 10 µM: Homo sapiens, LoVo
[7] = test system: A375 (Amelanotic Melanoma); assay: Cell viability analysis, skin cancer A375; details: for viability at 10 µM: Homo sapiens
[8] = test system: HeLa (Cervix Adenocarcinoma); assay: Cell viability analysis, cervical cancer HeLa; details: for viability at 10 µM: Homo sapiens, HeLa
[9] = test system: PC3 (p53−) (Prostate Adenocarcinoma); assay: Cell viability analysis, prostate cancer PC3; details: for viability at 10 µM: Homo sapiens, 72 h
[10] = test system: TSGH-8301 (Urinary Bladder Carcinoma); assay: Cell viability analysis, bladder cancer TSGH-8301; details: for viability at 10 µM: Homo sapiens
[11] = test system: MCF7 (Mammary Gland, Adenocarcinoma); assay: Cell viability analysis, breast cancer MCF7; details: for viability at 10 µM: Homo sapiens
[12] = test system: HL-60 (Acute Promyelocytic Leukemia); assay: Cell viability analysis, leukemia HL-60; details: for viability at 10 µM: Homo sapiens
[13] = NCI-H1650, 72 h, read-out: cell viability (survival rate), H1650, drug 10 μM, 72 hours, WST-1, OD450 nm
[14] = A549, 72 h, read-out: cell viability (survival rate), A549, drug 10 μM, 72 hours, WST-1, OD450 nm
[15] = 72 h, read-out: cell viability (survival rate), AGS, drug 10 μM, 72 hours, WST-1, OD450 nm
[16] = MKN-45, 72 h, read-out: cell viability (survival rate), MKN-45, drug 10 μM, 72 hours, WST-1, OD450 nm
[17] = HepG2, 72 h, read-out: cell viability (survival rate), HepG2, drug 10 μM, 72 hours, WST-1, OD450 nm
[18] = 72 h, read-out: cell viability (survival rate), LoVo, drug 10 μM, 72 hours, WST-1, OD450 nm
[19] = A-375, 72 h, read-out: cell viability (survival rate), A375, drug 10 μM, 72 hours, WST-1, OD450 nm
[20] = 72 h, read-out: cell viability (survival rate), HeLa, drug 10 μM, 72 hours, WST-1, OD450 nm
[21] = read-out: cell viability (survival rate), PC3, drug 10 μM, 72 hours, WST-1, OD450 nm
[22] = 72 h, read-out: cell viability (survival rate), TSGH, drug 10 μM, 72 hours, WST-1, OD450 nm
[23] = MCF7, 72 h, read-out: cell viability (survival rate), MCF7, drug 10 μM, 72 hours, WST-1, OD450 nm
[24] = HL-60, 72 h, read-out: cell viability (survival rate), HL-60, drug 10 μM, 72 hours, WST-1, OD450 nm
[25] = NCI-H1650, 72 h, drug 10 μM, 72 hours, WST-1, OD450 nm, read-out: cell viability (survival rate), H1650
[26] = A549, 72 h, drug 10 μM, 72 hours, WST-1, OD450 nm, read-out: cell viability (survival rate), A549
[27] = 72 h, drug 10 μM, 72 hours, WST-1, OD450 nm, read-out: cell viability (survival rate), AGS
[28] = MKN-45, 72 h, drug 10 μM, 72 hours, WST-1, OD450 nm, read-out: cell viability (survival rate), MKN-45
[29] = HepG2, 72 h, drug 10 μM, 72 hours, WST-1, OD450 nm, read-out: cell viability (survival rate), HepG2
[30] = A-375, 72 h, drug 10 μM, 72 hours, WST-1, OD450 nm, read-out: cell viability (survival rate), A375
[31] = 72 h, drug 10 μM, 72 hours, WST-1, OD450 nm, read-out: cell viability (survival rate), HeLa
[32] = drug 10 μM, 72 hours, WST-1, OD450 nm, read-out: cell viability (survival rate), PC3
[33] = 72 h, drug 10 μM, 72 hours, WST-1, OD450 nm, read-out: cell viability (survival rate), TSGH
[34] = HL-60, 72 h, drug 10 μM, 72 hours, WST-1, OD450 nm, read-out: cell viability (survival rate), HL-60
[35] = drug 10 μM, 72 hours, WST-1, OD450 nm

SMILES	viability at 10 µM [1, 13] [%]	viability at 10 µM [2, 14] [%]	viability at 10 µM [3, 15] [%]	viability at 10 µM [4, 16] [%]	viability at 10 µM [5, 17] [%]	viability at 10 µM [6, 18] [%]	viability at 10 µM [7, 19] [%]	viability at 10 µM [8, 20] [%]	viability at 10 µM [9, 21] [%]	viability at 10 µM [10, 22] [%]	viability at 10 µM [11, 23] [%]	viability at 10 µM [12, 24] [%]	also measured
Cc1ccccc1C(OCCN(C)C)c1ccccc1 (stereo not drawn) [Orphenadrine citrate (Norflex), Orphenadrine citrate]	99.6	21.8	82.9	102	97.8	45.6	89.2	67.9	41.6	53.4	35.9	92.9	
CC(=O)[C@@]1(O)CC[C@H]2[C@@H]3CCC4=CC(=O)CCC4=C3[C@@H](c3ccc(N(C)C)cc3)C[C@@]21C [Ulipristal]						67.8							viability at 10 µM [1, 25]: 40.3%; viability at 10 µM [2, 26]: 59.9%; viability at 10 µM [3, 27]: 55.4%; viability at 10 µM [4, 28]: 36.1%; viability at 10 µM [5, 29]: 69%; viability at 10 µM [7, 30]: 48.2%; viability at 10 µM [8, 31]: 72.4%; viability at 10 µM [9, 32]: 49.3%; viability at 10 µM [10, 33]: 55.8%; viability at 10 µM ([11]; MCF7, 72 h, drug 10 μM, 72 hours, WST-1, OD450 nm, read-out: cell viability (survival rate), MCF7): 65.4%; viability at 10 µM [12, 34]: 93.8%
CN(C)CCCN1c2ccccc2CCc2ccc(Cl)cc21.Cl [Clomipramine HCl (Anafranil)]													cell viability (survival rate), H1650 [1, 35]: 47.5; cell viability (survival rate), A549 [2, 35]: 69.1; cell viability (survival rate), AGS [3, 35]: 60.2; cell viability (survival rate), MKN-45 [4, 35]: 70.5; cell viability (survival rate), HepG2 [5, 35]: 115.6; cell viability (survival rate), LoVo [6, 35]: 87.1; cell viability (survival rate), A375 [7, 35]: 88.9; cell viability (survival rate), HeLa [8, 35]: 167.6; cell viability (survival rate), PC3 [9, 35]: 75.8; cell viability (survival rate), TSGH [10, 35]: 46.2; cell viability (survival rate), MCF7 [11, 35]: 75.7; cell viability (survival rate), HL-60 [12, 35]: 82.7
C[C@H]1COc2c(N3CCN(C)CC3)c(F)cc3c(=O)c(C(=O)O)cn1c23 [Levofloxacin (Levaquin), Levofloxacin]	64.9	36.7	51.6	44.5	88.4	62.6	39.3	50.8	29.6	41.8	43.9	93	
Cc1cc(=O)[nH]c(=S)[nH]1 [Methylthiouracil]						98.9							viability at 10 µM [1, 25]: 90.2%; viability at 10 µM [2, 26]: 164%; viability at 10 µM [3, 27]: 84.8%; viability at 10 µM [4, 28]: 79.9%; viability at 10 µM [5, 29]: 106%; viability at 10 µM [7, 30]: 72.1%; viability at 10 µM [8, 31]: 88.3%; viability at 10 µM [9, 32]: 151%; viability at 10 µM [10, 33]: 83.6%; viability at 10 µM [12, 34]: 106%
Fc1ccc([C@@H]2CCNC[C@H]2COc2ccc3c(c2)OCO3)cc1 [paroxetine]													viability at 10 µM ([10]; 72 h, read-out: The results of antibiotic drug inhibiting cancer cell lines (cell viability analysis), TSGH-8301, TSGH-8301, repeated experiment): 38.4%
C=CC1=C(C(=O)O)N2C(=O)[C@@H](NC(=O)/C(=N\O)c3csc(N)n3)[C@H]2SC1 [Cefdinir (Omnicef), Cefdinir]	93.6	97	79.1	70.5	106	111	92.5	86.4	135	35.6	55.1	104	
CCCc1nc(C)c2c(=O)[nH]c(-c3cc(S(=O)(=O)N4CCN(CC)CC4)ccc3OCC)nn12 [Vardenafil (Vivanza), Vardenafil]	67.2	96.5	86.5	68.2	81.8	106	73.2	61.7		57.8	117	127	
Nc1nccs1 [Aminothiazole]	68.7	56.1	62.3		90.4	86.4	78.4	65.7	93.8	86	108	121	
O=C([O-])[C@H](O)[C@@H](O)[C@H](O)[C@H](O)CO.[Na+] [Sodium Gluconate]													viability at 10 µM ([1]; NCI-H1650, drug 10 μM, 72 hours, WST-1, OD450 nm, read-out: cell viability (survival rate), H1650): 94.6%; viability at 10 µM ([2]; A549, drug 10 μM, 72 hours, WST-1, OD450 nm, read-out: cell viability (survival rate), A549): 91.9%; viability at 10 µM ([3]; drug 10 μM, 72 hours, WST-1, OD450 nm, read-out: cell viability (survival rate), AGS): 90.8%; viability at 10 µM ([4]; MKN-45, drug 10 μM, 72 hours, WST-1, OD450 nm, read-out: cell viability (survival rate), MKN-45): 93%; viability at 10 µM ([5]; HepG2, drug 10 μM, 72 hours, WST-1, OD450 nm, read-out: cell viability (survival rate), HepG2): 95.3%; viability at 10 µM ([6]; drug 10 μM, 72 hours, WST-1, OD450 nm, read-out: cell viability (survival rate), LoVo): 100%; viability at 10 µM ([7]; A-375, drug 10 μM, 72 hours, WST-1, OD450 nm, read-out: cell viability (survival rate), A375): 116%; viability at 10 µM ([8]; drug 10 μM, 72 hours, WST-1, OD450 nm, read-out: cell viability (survival rate), HeLa): 73%; viability at 10 µM ([10]; drug 10 μM, 72 hours, WST-1, OD450 nm, read-out: cell viability (survival rate), TSGH): 97.4%; viability at 10 µM ([11]; MCF7, drug 10 μM, 72 hours, WST-1, OD450 nm, read-out: cell viability (survival rate), MCF7): 94.7%; viability at 10 µM ([12]; HL-60, drug 10 μM, 72 hours, WST-1, OD450 nm, read-out: cell viability (survival rate), HL-60): 91.2%
